Experimental data taken from patent publication US20220064138A1, “MACROLIDE BREFELDIN A ESTER DERIVATIVES AND USE THEREOF” (OCEAN UNIVERSITY OF CHINA, priority 2019, published 2022).
≈ marks a conversion by molar mass, not a printed value.

Tests used:
Kunming breed mice = test: Toxicity test after intraperitoneal administration to mice; assay type: in vivo; conditions: 14 d; for Deaths: high and low doses (BFA effective amount conversion), ip., mice; for Mental condition of the animals after administration / Results of anatomy: abnormality in organs: male, Kunming, mouse, in vivo, ip
Protocol: Objective: Observation of toxic effects of compounds after intraperitoneally administration (ip.) to mice
1) Agents: Compounds disclosed herein were formulated to a suitable concentration.
2) Animals: Kunming breed mice, weight 18-22 g, male. Provided by Jinan Pengyue Laboratory Animal Breeding Co., Ltd. Animal license number: SCXK (Shandong 20140007)
Method: Kunming breed mice, were randomly grouped by weight, 6 mice per group, namely normal control group, BFA high and low dose groups (100 mg/kg and 50 mg/kg, respectively), and high and low dose groups of some compounds disclosed herein (BFA effective amount conversion). […] After 14 d of continuous administration, all the animals were weighed, and the animals were executed to observe whether there were any abnormalities in the organs.

[1] = test system: human lung cancer A549 cells; test: Cell proliferation assay (CCK-8); assay type: cell-based; conditions: A549, 72 h
Procedure, shortened: (§1)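 DMEM + 10% FBS, 37 °C/5% CO2; 5000 cells/well, 24 h attach; cpd 72 h, DMSO ≤2‰, duplicates; CCK-8 1.5–3 h; OD450; IC50 variable-slope fit.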

[2] = test system: human leukemia K562 cells; test: Cell proliferation assay (CCK-8); assay type: cell-based; conditions: K562, 72 h
Procedure, shortened: as §1

[3] = test system: human liver cancer HepG2 cells; test: Cell proliferation assay (CCK-8); assay type: cell-based; conditions: HepG2, 72 h
Procedure, shortened: as §1

[4] = test system: human gastric cancer MKN-45 cells; test: Cell proliferation assay (CCK-8); assay type: cell-based; conditions: MKN-45, 72 h
Procedure, shortened: as §1

[5] = test system: esophageal cancer Eca-109 cells; test: Cell proliferation assay (CCK-8); assay type: cell-based; conditions: Homo sapiens, Eca-109, 72 h
Procedure, shortened: as §1

[6] = test system: pancreatic cancer PANC-1 cells; test: Cell proliferation assay (CCK-8); assay type: cell-based; conditions: Homo sapiens, PANC-1, 72 h
Procedure, shortened: as §1

[7] = test system: human breast cancer MCF7 cells; test: Cell proliferation assay (CCK-8); assay type: cell-based; conditions: MCF7, 72 h
Procedure, shortened: as §1

[8] = test system: Human cervical cancer Hela cells; test: Cell proliferation assay (CCK-8); assay type: cell-based; conditions: 72 h
Procedure, shortened: as §1

[9] = Solubility test (shaking 24 h at 37° C., HPLC)
Method: (§2) Methods: Excess BFA and the compounds disclosed herein were added to 10 mL of three solvents, methanol, acetone and 5% DMSO+95% H2O, respectively, and shaken on a shaker at 37° C. at 100 r/min for 24 h. After 24 h, the samples were centrifuged at 15 000 r/min for 15 min to remove the undissolved compounds. The supernatant was filtered using a 0.45 μm membrane filter. The supernatant was appropriately diluted with methanol and contents of the compounds were determined by HPLC method to calculate the solubility.

physchem = conditions: 37° C., x ± s, n = 3
Method: as §2

SMILES	Deaths (Kunming breed mice)	Mental condition of the animals after administration (Kunming breed mice)	Results of anatomy: abnormality in organs (Kunming breed mice)	IC50 [1] [nM]	IC50 [2] [nM]	IC50 [3] [nM]	IC50 [4] [nM]	IC50 [5] [nM]	IC50 [6] [nM]	IC50 [7] [nM]	IC50 [8] [nM]	solubility at 24 h ([9]; 5% DMSO + 95% H2O) [mg/mL]	solubility at 24 h ([9]; acetone) [mg/mL]	solubility at 24 h ([9]; methanol) [mg/mL]	solubility at 24 h (physchem; Acetone) [mg/mL]	solubility at 24 h (physchem; 5% DMSO + 95% H2O) [mg/mL]	solubility at 24 h (physchem; Methanol) [mg/mL]
C[C@H]1CCC/C=C/[C@@H]2C[C@H](OC(=O)/C=C/c3ccc(N(C)C)cc3)C[C@H]2[C@H](OC(=O)/C=C/c2ccc(N(C)C)cc2)/C=C/C(=O)O1 [Compound 10c, 4,7-O-bis(4-dimethylaminocinnamic acid)acyl BFA]	no deaths	good mental condition	no significant abnormality in all organs	100 to 1000	100 to 1000	1000 to 10000	100 to 1000	1000 to 10000	1000 to 10000	1000 to 10000	1000 to 10000	0.44 ± 0.08	12.5 ± 0.92 (≈ 20 mM)	13.3 ± 0.91 (≈ 21.3 mM)			
C[C@H]1CCC/C=C/[C@@H]2C[C@H](OC(=O)/C=C/c3cccnc3)C[C@H]2[C@H](O)/C=C/C(=O)O1 [Compound 16a, 7-O-(3-(pyridine-3-yl)acrylic acid)acyl BFA]	no deaths	good mental condition	no significant abnormality in all organs	100 to 1000	100 to 1000	< 100	100 to 1000	100 to 1000	< 100	100 to 1000	100 to 1000				31.6 ± 0.72 (≈ 76.8 mM)		
C[C@H]1CCC/C=C/[C@@H]2C[C@H](OC(=O)/C=C/c3cnc4ccccc4c3)C[C@H]2[C@H](OC(=O)/C=C/c2cnc3ccccc3c2)/C=C/C(=O)O1 [Compound 17c]				1000 to 10000	100 to 1000	100 to 1000	1000 to 10000	1000 to 10000	100 to 1000	100 to 1000	1000 to 10000					0.45 ± 0.28	20.4 ± 0.52 (≈ 31.8 mM)
